Values belong to the compound of their own block, whether it stands above or below them.
Columns and labels:
human tumor cell lines = assay: Enhancement of cell killing by chemotherapeutic drugs (3H-thymidine uptake); format: cell-based
Description: To test the hypothesis that inhibition of Chk1 potentiates the killing effect of DNA-damaging agents, cells were incubated in the presence of selective Chk1 inhibitors and either irradiation or chemical DNA-damaging agents. Cells plated at a density of 1000-2000 per well in 96-well microtitre plates were grown in RMPI 1640 containing 10% FBS, 100 U/mL penicillin and 100 μg/mL streptomycin for 18 hours at 37° C. in a humidified incubator with 5% CO2. Cells tested included HeLa, ACHN, 786-0, HCT116, SW620, HT29, Colo205, SK-MEL-5, SK-MEL-28, A549, H322, OVCAR-3, SK-OV-3, MDA-MB-231, MCF-7, PC-3, HL-60, K562, and MOLT4. All cell line designations refer to human cell lines and refer to the following:
Cells were treated with media containing chemotherapeutic drugs alone or chemotherapeutic drugs and Compounds 12 and 29. Cells were incubated for approximately 5 days before growth was measured by determination of levels of ^3H-thymidine uptake. Chemotherapeutic drugs included etoposide, doxorubicin, cisplatin, chlorambucil, 5-fluorouracil (5-FU). The drug concentration necessary to inhibit cell growth to 90% of untreated control cells was defined as the GL90. At concentrations less than 100 μM, Compounds 12 and 29 enhanced the killing of 5-FU from 2- to 10-fold.
Compounds 2 and 12 were tested with additional antimetabolites, including methotrexate, hydroxyurea, 2-chloroadenosine, fludarabine, azacytidine, and gemcitibine for an ability to enhance killing of the agents.

[1] = system: Colo205 and HT29 xenograft tumors; assay: Colon tumor xenograft model; format: in vivo, Balb/c (nu/nu) mice; conditions: i.p. 50, 100 or 150 mg/kg; tumor weight by calipers
Description: To test the ability of the Chk1 inhibitors to enhance the killing of tumors by 5-FU in mice, xenograft tumor models using colon tumor cell lines were established. Colo205 and HT29 cells (human colon carcinoma) were used to propagate xenograft tumors in 6-8 week old female […] Balb/c (nu/nu) mice. Mice were maintained in a laminar airflow cabinet under pathogen-free conditions and fed sterile food and water ad libitum. Cell lines were grown to subconfluence in RPMI 1640 media supplemented with 10% FBS, 100 U/mL penicillin, 100 μg/mL streptomycin, and 1.5 mM L-glutamine in a 5% CO2 humidified environment. Single cell suspensions were prepared in CMF-PBS, and cell concentration adjusted to 1×10^8 cells/mL. Mice were inoculated subcutaneously (s.c). on the right flank or right leg with a total of 1×10^7 cells (100 μL).
Mice were randomized (5 mice/group) into four treatment groups and used when tumors reached a weight of 75-100 mg (usually 7-11 days post-inoculation). Tumors were measured with vernier calipers and tumor weights were estimated using the empirically derived formula: tumor weight (mg)=tumor length (mm)×tumor width (mm)^2/3.3. Treatment consisted of i) 100 μL intraperitoneal (i.p). injection of 5-FU at 50 mg/kg, 100 mg/kg, or 150 mg/kg. […] Tumor size was monitored every other day for the duration of the experiment.

Structure (SMILES): COc1cc(NC(=O)CCNC2CCCC2)ccc1NC(=O)Nc1cnccn1 [Compound 2, 3-cyclopentylamino-N-[3-methoxy-4-(3-pyrazin-2-yl-ureido)phenyl]-propionamide]
enhancement of killing of cells to 5-azacytidine (human tumor cell lines; combination with 5-azacytidine): enhance the killing of cells
enhancement of killing of cells to fludarabine (human tumor cell lines; combination with fludarabine): enhance the killing of cells
enhancement of killing of cells to hydroxyurea (human tumor cell lines; combination with hydroxyurea): enhance the killing of cells
enhancement of killing of cells to methotrexate (human tumor cell lines; combination with methotrexate): enhance the killing of cells

Structure (SMILES): O=c1[nH]cc(F)c(=O)[nH]1 [Compound 5-FU, 5-fluorouracil]
tumor growth [1]: dose-dependent delay in tumor growth

melting point: 142 to 143 °C
Structure (SMILES): COc1cc(CN(C)Cc2ccccc2)ccc1NC(=O)Nc1cnc(C)cn1 [Compound 340, 1-{4-[(Benzyl-methyl-amino)-methyl]-2-methoxy-phenyl}-3-(5-methyl-pyrazin-2-yl)-urea]

melting point: 168 to 169 °C
Structure (SMILES): COc1cc(CN)ccc1NC(=O)Nc1cnc(C)cn1 [Compound 342, 1-(4-Aminomethyl-2-methoxy-phenyl)-3-(5-methyl-pyrazin-2-yl)-urea]
